In the assay the target is T1, human oxytocin receptor (Homo sapiens, UniProt P30559).
T1 construct: host or cells: CHO cells (pcDNA3.1 vector)
T1 sequence (P30559 1-389): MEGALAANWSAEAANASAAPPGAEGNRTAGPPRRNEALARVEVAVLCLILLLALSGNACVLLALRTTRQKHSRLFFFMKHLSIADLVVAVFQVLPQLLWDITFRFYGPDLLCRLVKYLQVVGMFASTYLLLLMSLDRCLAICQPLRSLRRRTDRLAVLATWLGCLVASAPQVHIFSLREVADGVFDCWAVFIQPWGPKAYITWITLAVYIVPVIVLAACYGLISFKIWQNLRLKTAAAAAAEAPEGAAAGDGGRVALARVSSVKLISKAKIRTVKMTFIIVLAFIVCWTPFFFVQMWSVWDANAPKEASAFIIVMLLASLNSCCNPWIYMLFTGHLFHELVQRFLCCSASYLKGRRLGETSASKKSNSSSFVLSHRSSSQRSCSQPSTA
The assay is described as follows: Oxytocin binding in Chinese Hamster Ovary cell membranes expressing human oxytocin receptors. Conditions: 100 nM, CHO cell membranes, [3H]oxytocin, values without parentheses, read-out: OT % inhibition @ 100% nM.

For `Cc1cc(C(=O)N2Cc3ccc(C(=O)N4CCN(C(=O)OC(C)(C)C)CC4)n3Cc3ccccc32)ccc1-c1ccccc1C(F)(F)F` [Example 6, 4-[[10,11-Dihydro-10-[[2-methyl-2′-trifluoromethyl[1,1′-biphenyl]-4-yl]carbonyl]-5H-pyrrolo[2,1-c][1,4]benzodiazepin-3-yl]carbonyl]-1-piperazine-carboxylic acid, tert-butyl ester], the inhibition at 0.1 µM amounted to 56%.
Turning to `COc1ccccc1-c1ccc(C(=O)N2Cc3ccc(C(=O)O)n3Cc3ccccc32)cc1C` [Example 9, 10-[(2′-Methoxy-2-methyl-[1,1′-biphenyl]-4-yl)carbonyl]-10,11-dihydro-5H-pyrrolo[2,1-c][1,4]benzodiazepine-3-carboxylic acid], the inhibition at 0.1 µM came out at 32%.
The figure for `COc1cc2c(cc1OC)N(C(=O)c1ccc(-c3ccccc3C(F)(F)F)c(C)c1)Cc1cccn1C2` [Example 12, 7,8-Dimethoxy-[10,11-dihydro-5H-pyrrolo[2,1-c][1,4]benzodiazepin-10-yl][2-methyl-2′-(trifluoromethyl)[1,1′-biphenyl]-4-yl]methanone] is 21%.
The figure for `COc1cc(-c2ccccc2C(F)(F)F)c(Cl)cc1C(=O)N1Cc2ccc(C(=O)O)n2Cc2ccccc21` [Example 15, 10-{[6-Chloro-3-methoxy-2′-trifluoromethyl-[1,1′-biphenyl]-4-yl]carbonyl}-10,11-dihydro-5H-pyrrolo[2,1-c][1,4]benzodiazepine-3-carboxylic acid] is -4%.
The figure for `COc1cccc(-c2cc(OC)c(C(=O)N3Cc4ccc(C(=O)NCCN5CCCCC5)n4Cc4ccccc43)cc2Cl)c1` [Example 156, 10-[(6-Chloro-3,3′-dimethoxy[1,1′-biphenyl]-4-yl)carbonyl]-N-[2-(1-piperidinyl)ethyl]-10,11-dihydro-5H-pyrrolo[2,1-c][1,4]benzodiazepine-3-carboxamide] is 30%; for `COc1cc(C(=O)N2Cc3ccc(C(=O)NCCN4CCCCC4)n3Cc3ccccc32)ccc1-c1cccc2ccccc12` [Example 157, 10-[3-Methoxy-4-(1-naphthyl)benzoyl]-N-[2-(1-piperidinyl)ethyl]-10,11-dihydro-5H-pyrrolo[2,1-c][1,4]benzodiazepine-3-carboxamide] it is 38%.
Consider `COc1ccccc1-c1ccc(C(=O)N2Cc3ccc(C(=O)NCCN4CCCCC4)n3Cc3ccccc32)cc1OC` [Example 158, 10-[(2,2′-Dimethoxy[1,1′-biphenyl]-4-yl)carbonyl]-N-[2-(1-piperidinyl)ethyl]-10,11-dihydro-5H-pyrrolo[2,1-c][1,4]benzodiazepine-3-carboxamide], for which the inhibition at 0.1 µM was determined as 50%.
The figure for `COc1cccc(-c2ccc(C(=O)N3Cc4ccc(C(=O)NCCN5CCCCC5)n4Cc4ccccc43)cc2OC)c1` [Example 159, 10-[(2,3′-Dimethoxy[1,1′-biphenyl]-4-yl)carbonyl]-N-[2-(1-piperidinyl)ethyl]-10,11-dihydro-5H-pyrrolo[2,1-c][1,4]benzodiazepine-3-carboxamide] is 50%; for `O=C(NCCN1CCCCC1)c1ccc2n1Cc1ccccc1N(C(=O)c1ccc(-c3cccc4ccccc34)cc1Cl)C2` [Example 160, 10-[2-Chloro-4-(1-naphthyl)benzoyl]-N-[2-(1-piperidinyl)ethyl]-10,11-dihydro-5H-pyrrolo[2,1-c][1,4]benzodiazepine-3-carboxamide] it is 20%.
The figure for `Cc1cc(C(=O)N2Cc3ccc(C(=O)NCCN4CCCCC4)n3Cc3ccccc32)ccc1-c1ccccc1C(F)(F)F` [Example 161, 10-{[2-Methyl-2′-(trifluoromethyl)[1,1′-biphenyl]-4-yl]carbonyl}-N-[2-(1-piperidinyl)ethyl]-10,11-dihydro-5H-pyrrolo[2,1-c][1,4]benzodiazepine-3-carboxamide] is 53%.
The figure for `COc1ccccc1-c1ccc(C(=O)N2Cc3ccc(C(=O)NCCC4CCCN4C)n3Cc3ccccc32)cc1C` (stereo not shown) [Example 162, 10-[(2′-Methoxy-2-methyl[1,1′-biphenyl]-4-yl)carbonyl]-N-[2-(1-methyl-2-pyrrolidinyl)ethyl]-10,11-dihydro-5H-pyrrolo[2,1-c][1,4]benzodiazepine-3-carboxamide] is 71%; for `Cc1ccccc1-c1ccc(C(=O)N2Cc3ccc(C(=O)NCCC4CCCN4C)n3Cc3ccccc32)cc1C` (stereo not shown) [Example 163, 10-[(2,2′-Dimethyl[1,1′-biphenyl]-4-yl)carbonyl]-N-[2-(1-methyl-2-pyrrolidinyl)ethyl]-10,11-dihydro-5H-pyrrolo[2,1-c][1,4]benzodiazepine-3-carboxamide] it is 82%.
In the case of `COc1ccccc1-c1ccc(C(=O)N2Cc3ccc(C(=O)NCCC4CCCN4C)n3Cc3ccccc32)cc1` (stereo not shown) [Example 165, 10-[(2′-Methoxy[1,1′-biphenyl]-4-yl)carbonyl]-N-[2-(1-methyl-2-pyrrolidinyl)ethyl]-10,11-dihydro-5H-pyrrolo[2,1-c][1,4]benzodiazepine-3-carboxamide], the inhibition at 0.1 µM stood at 64%.
Under `Cc1ccccc1-c1ccc(C(=O)N2Cc3ccc(C(=O)NCCC4CCCN4C)n3Cc3ccccc32)cc1` (stereo not shown) [Example 166, 10-[(2′-Methyl[1,1′-biphenyl]-4-yl)carbonyl]-N-[2-(1-methyl-2-pyrrolidinyl)ethyl]-10,11-dihydro-5H-pyrrolo[2,1-c][1,4]benzodiazepine-3-carboxamide] stands 27%; under `COc1cc(C(=O)N2Cc3ccc(C(=O)NCCC4CCCN4C)n3Cc3ccccc32)ccc1-c1ccccc1C` (stereo not shown) [Example 167, 10-[(2-Methoxy-2′-methyl[1,1′-biphenyl]-4-yl)carbonyl]-N-[2-(1-methyl-2-pyrrolidinyl)ethyl]-10,11-dihydro-5H-pyrrolo[2,1-c][1,4]benzodiazepine-3-carboxamide], 60%; under `COc1cc(-c2ccccc2C)c(Cl)cc1C(=O)N1Cc2ccc(C(=O)NCCC3CCCN3C)n2Cc2ccccc21` (stereo not shown) [Example 168, 10-[(6-Chloro-3-methoxy-2′-methyl[1,1′-biphenyl]-4-yl)carbonyl]-N-[2-(1-methyl-2-pyrrolidinyl)ethyl]-10,11-dihydro-5H-pyrrolo[2,1-c][1,4]benzodiazepine-3-carboxamide], 52%.
Under `COc1cccc(-c2cc(OC)c(C(=O)N3Cc4ccc(C(=O)NCCC5CCCN5C)n4Cc4ccccc43)cc2Cl)c1` (stereo not shown) [Example 169, 10-[(6-Chloro-3,3′-dimethoxy[1,1′-biphenyl]-4-yl)carbonyl]-N-[2-(1-methyl-2-pyrrolidinyl)ethyl]-10,11-dihydro-5H-pyrrolo[2,1-c][1,4]benzodiazepine-3-carboxamide] stands 36%.
The figure for `COc1cc(C(=O)N2Cc3ccc(C(=O)NCCC4CCCN4C)n3Cc3ccccc32)ccc1-c1cccc2ccccc12` (stereo not shown) [Example 170, 10-[3-Methoxy-4-(1-naphthyl)benzoyl]-N-[2-(1-methyl-2-pyrrolidinyl)ethyl]-10,11-dihydro-5H-pyrrolo[2,1-c][1,4]benzodiazepine-3-carboxamide] is 47%.
For the compound `COc1ccccc1-c1ccc(C(=O)N2Cc3ccc(C(=O)NCCC4CCCN4C)n3Cc3ccccc32)cc1OC` (stereo not shown) [Example 171, 10-[(2,2′-Dimethoxy[1,1′-biphenyl]-4-yl)carbonyl]-N-[2-(1-methyl-2-pyrrolidinyl)ethyl]-10,11-dihydro-5H-pyrrolo[2,1-c][1,4]benzodiazepine-3-carboxamide], the inhibition at 0.1 µM turned out to be 40%.

What is called inhibition is the change of the read-out against control, counted positive when it falls.

(Values after US7109193B2, “Tricyclic diazepines tocolytic oxytocin receptor antagonists” (Wyeth, priority 2001, dated 2006).)
